Laboratory results as given in patent US9458086B1, “Compositions and methods for adipocyte modulation” (University of South Florida (A Florida Non-Profit …, priority 2013, dated 2016).

Experiments:
PKCδI [1] = test: Western blot of PKCδI expression in differentiating 3T3L1 cells; type: cell-based, mouse
Protocol: (§1) Mouse 3T3-L1 preadipocytes were purchased from ZenBio™ (Research Triangle Park, N.C., USA) and passaged as preconfluent cultures in DMEM high glucose (Invitrogen, Carlsbad, Calif.) with 10% newborn calf serum (Sigma-Aldrich, St. Louis, Mo.) at 37° C. and 10% CO2. Once confluent, cells were differentiated (day 0) in DMEM high glucose with 10% fetal bovine serum (Atlas Biological, Fort Collins, Colo.), 10 μg/mL bovine insulin (Sigma), […] dexamethasone (Sigma), and 0.5 mM isobutyl-1-methylxanthine (Sigma). On day 2, media was replaced with DMEM high glucose, 10% FBS, and bovine insulin. Day 4 and afterwards, cells were cultured in DMEM high glucose plus 10% FBS.
(§2) Protein lysates were obtained from 3T3L1 cells using lysis buffer containing proteases. Protein lysates (40 μg) were separated by SDS-PAGE with 10% gels. Proteins were electrophoretically transferred to nitrocellulose membranes, blocked with Tris-buffered saline containing 0.1% Tween 20 and 5% nonfat dried milk, washed, and incubated with a polyclonal anti-PARP (Upstate Biotechnology), anti-XIAP (AnaSpec), anti-Bcl2, anti-caspase 9 (Calbiochem), anti-Bcl-x (Santa Cruz Biotechnology), and anti-PKCδ (Cell Signaling) or antibody against the hinge-region of PKCδII (Patel lab (19)). This antibody is specific for PKCδII, as it recognizes the extended hinge region, which is absent in PKCδI (24). Other antibodies used are as follows: PPARγ, Akt, pAkt 473, TNFα, Adiponectin, p-BAD (S316), p-PTEN (Cell Signaling, Boston, Mass.), β-actin A5441 (Sigma). After incubation with anti-rabbit IgG-HRP, enhanced chemiluminescence (Pierce) was used for detection. FluorChem M™ (Protein Simple) imaging system was used to capture digital chemiluminescence images and process western blots. Data was analyzed using AlphaView® software.

PPARγ = test: Western blot of PPARγ (adipogenesis marker) in differentiating 3T3L1 cells; type: cell-based, mouse
Protocol: as §1, §2

3T3L1 adipocytes [2] = test: Apoptosis assay, Annexin V-PI staining by flow cytometry; type: cell-based, mouse
Protocol: as §1
3T3L1 preadipocytes were cultured on 60 mm dishes as described above. For apoptosis assays, cells were serum-starved for 48 hours. Media were collected and cells were washed one time with HBSS and then trypsinized for 5.0 minutes. Five ml complete media was added to neutralize the trypsin. Media and washes were pooled and centrifuged at 1200 RPMS for five minutes. […] 400 μl binding buffer was added and cells were analyzed by flow cytometry within one hour Annexin V-FITC and PI fluorescence, which stains apoptotic cells, were measured using an Accuri C6 flow cytometer.

PKCδII [3] = test: RT-PCR of PKCδII splicing/mRNA in differentiating 3T3L1 preadipocytes; type: cell-based, mouse
Protocol: as §1
Total RNA was isolated from 3T3L1 cells with RNA-Bee (Tel Test Center) as recommended by the manufacturer. RNA was also obtained from adipose tissues of mice fed with or without resveratrol. 2 μg RNA was used to synthesize first-strand cDNA with an Oligo(dT) primer and Omniscript R kit (Qiagen). The following primers were used in PCR: PKCδ forward primer 5′ […] 3′ (SEQ ID NO:1); reverse primer 5′ […] 3′ (SEQ ID NO:2). These primers amplified PKCδI and PKCδII simultaneously. […] Following PCR, 5% of products were resolved on 6% PAGE gels and detected by silver staining. The PCR reaction was optimized for linear range amplification to allow for quantification of products. […]

[4] = test system: cPKCs: α, βI, βII, γ; nPKCs: η, ε, θ; aPKCs: ζ, λ; test: Immunoblotting for other PKC family isoforms (specificity); type: cell-based, mouse; conditions: SEAM treatment (200 nM)
Protocol: as §1
Protein lysates were obtained from 3T3L1 cells using lysis buffer containing proteases. Protein lysates (40 μg) were separated by SDS-PAGE with 10% gels. […] Data was analyzed using AlphaView® software.
3-hydroxystilbene was modified by Mannich coupling to add bis-diethylaminomethyl group (described in Example 1). Several synthetic stilbenoids with structural modifications to the basic resveratrol structure were evaluated. […]

Bcl2 = test: Western blot of Bcl2 in 3T3L1 cells; type: cell-based, mouse; conditions: SEAM treatment (200 nM)
Protocol: as §1
(§3) Protein lysates were obtained from 3T3L1 cells using lysis buffer containing proteases. Protein lysates (40 μg) were separated by SDS-PAGE with 10% gels. Proteins were electrophoretically transferred to nitrocellulose membranes, blocked with Tris-buffered saline containing 0.1% Tween 20 and 5% nonfat dried milk, washed, and incubated with a polyclonal anti-PARP (Upstate Biotechnology), anti-XIAP (AnaSpec), anti-Bcl2, anti-caspase 9 (Calbiochem), anti-Bcl-x (Santa Cruz Biotechnology), and anti-PKCδ (Cell Signaling) or antibody against the hinge-region of PKCδII (Patel lab (19)). […] Data was analyzed using AlphaView® software.

Bcl-xL = test: Western blot of Bcl-xL in 3T3L1 cells; type: cell-based, mouse; conditions: SEAM treatment (200 nM)
Protocol: as §1, §3

adiponectin = test: Western blot of adiponectin in 3T3L1 cells; type: cell-based, mouse; conditions: SEAM treatment, days 4 and 8
Protocol: as §1, §3

3T3L1 cells = test: Cytotoxicity assay / cell viability; type: cell-based, mouse; conditions: 200 nM SEAM in 3T3L1 cells
Protocol: WST-1 (Roche Molecular Biochemicals, IN) was added to 3T3L1 cells (in triplicate) that are treated without or with SEAM to a final concentration of 10% (vol/vol). Cells were incubated for 2 hours at 37° C. The formazon dye produced by viable cells was quantified using a spectrophotometer set at a wavelength of 440 nm and absorbance recorded for each well (reference wavelength, 690 nm).
Immunoblotting for PPARγ and adiponectin was also performed to determine whether SEAM affected differentiation of 3T3L1 cells. […] Total apoptosis was measured by flow cytometry using Annexin V-PI staining (FIG. 8d). To determine whether SEAM was toxic to cells, cell viability was evaluated upon treatment of 200 nM SEAM in 3T3L1 cells. Cytotoxicity was measured using the […] assay. This assay measures the reducing potential of the cell using a colorimetric reaction. Viable cells reduce the […] to a colored formazan product.

[5] = test system: PKCδ exon 9 5′ splice site II; test: pSPL3-PKCδ splicing minigene RT-PCR; type: cell-based, mouse; conditions: 200 nM SEAM, 24 hours after minigene transfection, harvested on day 2
Description: The pSPL3 vector was modified to remove cryptic 5′ splice sites as described in a previous publication (25). The pSPL3 vector was digested with BamHI (in the MCS) and NheI. Primers to amplify genomic PKCδ from 3T3L1 cells flanked mouse PKCδ exon 9 and were designed to include the BclI site in the forward primer (in bold type) and BcuI site in the reverse primers (in bold type). The forward primer was designed to amplify 137 bp of 3′ intronic sequence such that the product contained the branch point and 3′ splice site and the reverse primer included 284 bp 5′ intronic sequence and included the 5′ splice site II of exon 9. The primers were: forward primer 5′ […] 3′ (SEQ ID NO:6); reverse primer 5′ […] 3′ (SEQ ID NO:7). The product was verified by sequencing and ligated into the digested pSPL3 vector. The overhangs of the selected restriction enzymes can hybridize and this enabled cloning of the PCR product in the proper orientation. The resulting pSPL3-PKCδ minigene was verified by restriction digestion and sequencing.
Splicing minigenes are advantageous to study alternative splicing events without influence from endogenous factors. […] Utilization of 5′ splice site I on exon 9 gave rise to PKCδI while utilization of downstream 5′ splice site II gave rise to PKCδII. After 24 hours, the cells were treated with 200 nM SEAM. […]

PKCδII [6] = test: Western blot of PKCδII expression in differentiating 3T3L1 cells; type: cell-based, mouse; conditions: for inhibition of PKCδII expression levels: 25 μM administered on day 5 (mature adipocyte)
Protocol: as §1, §2

3T3L1 adipocytes [7] = test: Oil Red O staining for lipid accumulation; type: cell-based, mouse; conditions: 25 μM on day 4, Oil Red O staining on day 8
Protocol: as §1
3T3L1 preadipocytes were washed with PBS and fixed with 10% formalin for 30 minutes. The cells were then rinsed and incubated with 60% isopropanol for 5 minutes. Oil Red O stain (0.15%, Sigma) was added and incubated for 10 minutes. Images were captured with Nixon confocal microscope.

PKCδII [8] = test: PCR of PKCδII in adipose tissue of mice fed resveratrol; type: in vivo, mouse; conditions: 400 mg resveratrol per kg body weight in diet, once daily
Protocol: (§4) Total RNA was obtained from mouse adipose tissues from Dr. You (University of South Florida). 8-week old male C57BL/6J (Jackson labs) were either fed a chow diet (control) or diet with added 400 mg resveratrol per kg body weight, once daily 23); n=5. Total RNA was extracted from adipose tissues from these mice. All protocols were reviewed and approved by the Institutional Animal Care and Use Committee at University of South Florida, Division of Comparative Medicine.
(§5) Total RNA was isolated from 3T3L1 cells with RNA-Bee (Tel Test Center) as recommended by the manufacturer. RNA was also obtained from adipose tissues of mice fed with or without resveratrol. 2 μg RNA was used to synthesize first-strand cDNA with an Oligo(dT) primer and Omniscript R kit (Qiagen). The following primers were used in PCR: PKCδ forward primer 5′ […] 3′ (SEQ ID NO:1); reverse primer 5′ […] 3′ (SEQ ID NO:2). These primers amplified PKCδI and PKCδII simultaneously. PKCδII-specific antisense primer (5′ […]3′) (SEQ ID NO:3). β-actin forward primer 5′ […] 3′ (SEQ ID NO:4); reverse primer 5′ […] 3′ (SEQ ID NO:5). Following PCR, 5% of products were resolved on 6% PAGE gels and detected by silver staining. The PCR reaction was optimized for linear range amplification to allow for quantification of products. Densitometric analyses of the bands were done using the Un-Scan IT™ Analysis Software (Silk Scientific).

PKCδI [9] = test: PCR of PKCδI in adipose tissue of mice fed resveratrol; type: in vivo, mouse; conditions: 400 mg resveratrol per kg body weight in diet, once daily
Protocol: as §4, §5

3T3L1 preadipocytes = test: Resveratrol dose finding in differentiating 3T3L1 preadipocytes; type: cell-based, mouse; conditions: doses 10 to 100 μM tested, data not shown
Protocol: as §1
Several studies have shown its role in inhibiting adipose cell proliferation, lipid accumulation and stimulation of apoptosis and lipolysis in mature adipocytes. Further, resveratrol is shown to modulate alternative splicing of genes (29). However, its mechanisms of action and target proteins in apoptotic pathways during adipogenesis was not determined. […] Resveratrol treatment administered on day 5 (mature adipcoyte) inhibited PKCδII expression levels by 65% on day 6 and by more than 90% on day 8 (FIG. 7I a, b, c). Simultaneously, up to a 50% increase in PKCδI levels was observed on days 6 and 8.

TNFα = conditions: mice, 400 mg resveratrol; earlier studies (23); cited from earlier work
SIRT1 = conditions: mice, 400 mg resveratrol; earlier studies (23); cited from earlier work

SMILES: CCN(CC)Cc1ccc(/C(C)=C(\C)c2ccc(CN(CC)CC)c(O)c2)cc1O [SEAM]
- PKCδI expression (PKCδI [1]; 100 nM, data not shown): not affected
- PKCδI levels (PKCδI [1]; SEAM treatment (200 nM)): did not affect
- decrease of PPARγ2 compared to control (PPARγ; SEAM treatment, days 4 and 8): 5%
- apoptosis levels (3T3L1 adipocytes [2]; 200 nM SEAM, Annexin V-PI staining): increased compared to control
- inhibition of PKCδII splicing (PKCδII [3]; 100 nM, data not shown): 60%
- decrease of PKCδII compared to control cells (PKCδII [3]; 200 nM): 80%
- expression levels of other PKC isoforms [4]: did not affect
- decrease of Bcl2 levels (Bcl2): 40%
- decrease of BclxL levels (Bcl-xL): 20%
- decrease of adiponectin compared to control (adiponectin): 20%
- cell viability (3T3L1 cells): viable
- utilization of 5′ splice site II [5]: inhibited

SMILES: Oc1ccc(C=Cc2cc(O)cc(O)c2)cc1 [resveratrol, 3,5,4′-trihydroxystilbene]
- decrease in PKCδII expression (PKCδII [6]; 25 μM administered on day 0 (preadipocyte)): less than 10%
- inhibition of PKCδII expression levels (PKCδII [6]; read on day 6): 65%
- inhibition of PKCδII expression levels (PKCδII [6]; read on day 8): more than 90%
- increase in PKCδI levels (PKCδI [1]; 25 μM resveratrol, days 6 and 8): ≤ 50%
- PPARγ2 levels (PPARγ; 25 μM resveratrol, day 8): inhibition of PPARγ2 levels
- decline of PPARγ1 levels (PPARγ; 25 μM resveratrol, day 8): 30%
- decline in lipid accumulation compared to control (3T3L1 adipocytes [7]): greater than 75%
- adipocytes undergoing apoptosis (3T3L1 adipocytes [2]; 25 μM on day 2, collected on day 8): 70%
- decrease in PKCδII expression in adipose tissue (PKCδII [8]): 70%
- increase in PKCδI expression in adipose tissue (PKCδI [9]): 25%
- effect on the cells (3T3L1 preadipocytes; 100 μM resveratrol): detrimental to the cells
- optimal dose (3T3L1 preadipocytes): 25 µM
- TNFα levels in adipose tissue (TNFα): decreased
- SIRT1 levels in adipose tissue (SIRT1): increased
